System: rabbit LDL
Test: Amount of thiobarbituric acid reactive substances (TBARS) formed on Cu2+ oxidation of LDL
Assay type: biochemical
Conditions: 5 µM of Cu²⁺ added to rabbit LDL, followed by heating
Description: The biological properties of the compounds as shown hereinafter were examined by the following methods. • (1) The amount of thiobarbituric acid reactive substances: 5 µM of Cu²⁺ was added to rabbit LDL, prepared by the method reported by Havel et al., followed by heating. Then the antioxidative effect of each compound was examined by using the thiobarbituric acid reactive substances (TBARS) thus formed as the guidance. […] 0.5 ml of an n-butanol solution containing 0.2 µM of MCLA and 10 mM of linoleic acid was introduced into a vial for luminescence analysis and the luminescence due to autoxidation was measured in a thermostat at 37°C. […] To the obtained plasma, were added EDTA-NaN₃ (a 5% solution of pH 7.4) and a benzamidine solution (60 mg/ml) respectively in amounts of 0.8 ml and 0.5 ml per 100 ml of the plasma. Then rabbit or human LDL (1.019 < d < 1.063) was prepared by ultracentrifugation in accordance with the method of Havel et al.*. After performing the ultracentifugation again, the LDL was washed and concentrated. Then it was dialyzed against a 150 mM NaCl - 2 mM Na₂HPO₄ solution at 4°C and KBr was removed. The protein content was determined by Lowry method** and then the LDL was subjected to the subsequent procedure. (Measurement of electrophoretic mobility in agarose gel) 10 µM of Cu²⁺ and a specimen were added to an LDL-containing solution (3.00 µg protein/ml). After incubating at 37°C for approximately 24 hours, a portion (1 µl) thereof was applied onto an agarose gel film (Universal Film, manufactured by Corning Co.) and then subjected to electrophoresis (Agarose Gel Electrophoresis System for Lipoprotein, manufactured by Corning Co.). Thus the mobility was measured by staining lipids with Fat Red 7B. […] After 3 days, peritoneal macrophages were collected from the mouse and incubated in an RPMI 1640 medium containing 10% of FBS. The macrophages were used in the • examination on the next day.

SMILES	Formed TBARS (%) (Compound conc. 10^-5 M, 10 µM)	Formed TBARS (%) (Compound conc. 10^-6 M, 1 µM)
CCN(Cc1ccccc1)c1cc(OC)c(OC)c(OC)c1 [Compound 3, N-benzyl-N-ethyl-3,4,5-trimethoxyaniline]	35%	51%
COc1cc(NC(c2ccccc2)c2ccccc2)cc(OC)c1OC [Compound 82]	15%	34%
CCCCCCOc1ccc(CNc2cc(OC)c(OC)c(OC)c2)cc1 [Compound 41]	16%	63%
CCOC(=O)C(C)(C)Oc1ccc(CNc2cc(OC)c(OC)c(OC)c2)cc1 [Compound 55]	20%	46%
CCCCCCC(Nc1cc(OC)c(OC)c(OC)c1)c1ccccc1 (stereo not shown) [Compound 78]	14%	29%
COc1cc(NCc2nccn2CC=C(C)CCC=C(C)CCC=C(C)C)cc(OC)c1OC [Compound 100]	13%	81%
COc1cc(NCCC(C)CCCC(C)CCCC(C)CCCC(C)C)cc(OC)c1OC (stereo not shown) [Compound 115]	15%	71%
COc1cc(NC2CCCc3ccccc32)cc(OC)c1OC (stereo not shown) [Compound 90]	9%	26%
COc1cc(NCc2ccc(OCCCCCCC(=O)O)cc2)cc(OC)c1OC [Compound 54]	16%	46%
COc1cc(N(CC2CCCCC2)CC2CCCCC2)cc(OC)c1OC [Compound 104]	23%	31%
CCCCCCCCCCCCN(CCCCCCCCCCCC)c1cc(OC)c(OC)c(OC)c1 [Compound 114]	93%	94%
CCCCCCCCCCCCOc1ccc(CNc2cc(OC)c(OC)c(OC)c2)cc1OCCCCCCCCCCCC [Compound 43]	62%	94%
COc1cc(NCCCc2ccccc2)cc(OC)c1OC [Compound 70]	18%	25%
COc1cc(N(CCCc2ccccc2)Cc2c(F)c(F)c(F)c(F)c2F)cc(OC)c1OC [Compound 30]	26%	57%
COc1cc(NCC2CCCCC2)cc(OC)c1OC [Compound 103]	8%	23%
COc1cc(NCc2cccc(Oc3ccccc3)c2)cc(OC)c1OC [Compound 51]	16%	32%
COc1cc(NCc2ccccc2SCCC(C)CCCC(C)C)cc(OC)c1OC (stereo not shown) [Compound 50]	17%	70%
COc1cc(NCc2ccc[nH]2)cc(OC)c1OC [Compound 94]	63%	87%
CCCCCCCCC(Nc1cc(OC)c(OC)c(OC)c1)c1ccccc1 (stereo not shown) [Compound 79]	19%	46%
COc1cc(NCC=Cc2ccccc2)cc(OC)c1OC [Compound 85]	20%	64%
C=CCN(Cc1ccco1)c1cc(OC)c(OC)c(OC)c1 [Compound 96]	43%	67%
COc1cc(N(CC=C(C)CCC=C(C)C)Cc2ccccc2)cc(OC)c1OC [Compound 8]	31%	55%
CCOC(=O)CCCCCCOc1ccc(CNc2cc(OC)c(OC)c(OC)c2)cc1 [Compound 53]	13%	38%
COc1cc(NCc2ccc(Oc3ccccc3)cc2)cc(OC)c1OC [Compound 52]	13%	43%
COc1cc(NCc2ccccc2OC/C=C(\C)CCC=C(C)C)cc(OC)c1OC [Compound 46]	13%	69%

SMILES	Formed TBARS (%) (Compound conc. 10^-5 M, 10 µM)	Formed TBARS (%) (Compound conc. 10^-6 M, 1 µM)
COc1cc(NC2CCOc3ccccc32)cc(OC)c1OC (stereo not shown) [Compound 101]	18%	41%
COc1cc(NCc2ccc(Br)cc2)cc(OC)c1OC [Compound 26]	12%	27%
CCCCC(Nc1cc(OC)c(OC)c(OC)c1)c1ccccc1 (stereo not shown) [Compound 77, N-(1-phenylpentyl)-3,4,5-trimethoxyaniline]	17%	31%
CCCCCCCCOc1ccc(CNc2cc(OC)c(OC)c(OC)c2)cc1 [Compound 42]	19%	72%
COc1cc(NCC=C(C)C)cc(OC)c1OC [Compound 116]	33%	61%
COc1cc(NCc2ccco2)cc(OC)c1OC [Compound 95]	29%	66%
COc1cc(NC2CCC3CCCCC3C2)cc(OC)c1OC (stereo not shown) [Compound 110]	7%	16%
COc1cc(NCc2ccc(OC/C=C(\C)CCC=C(C)C)cc2)cc(OC)c1OC [Compound 47]	17%	76%
CCCCC(Nc1cc(OC)c(OC)c(OC)c1)C1CCCCC1 (stereo not shown) [Compound 108]	8%	21%
COc1cc(NCc2cccnc2)cc(OC)c1OC [Compound 99]	47%	79%
COc1cc(NCc2cccc(Br)c2)cc(OC)c1OC [Compound 27]	12%	29%
COc1cc(NCc2ccc(C)c(C)c2)cc(OC)c1OC [Compound 10]	9%	25%
COc1cc(NCc2ccccc2OCCC(C)CCCC(C)C)cc(OC)c1OC (stereo not shown) [Compound 45]	15%	80%
COc1cc(NCc2ccc([N+](=O)[O-])cc2)cc(OC)c1OC [Compound 64]	17%	38%
COc1cc(N(C)Cc2ccccc2)cc(OC)c1OC [Compound 2, N-benzyl-N-methyl-3,4,5-trimethoxyaniline]	31%	56%
COc1cc(N(CC=Cc2ccccc2)CC=Cc2ccccc2)cc(OC)c1OC [Compound 86]	27%	52%
COc1cc(NC(C)C2CCCCC2)cc(OC)c1OC (stereo not shown) [Compound 105]	8%	22%
CCCC(Nc1cc(OC)c(OC)c(OC)c1)C1CCCCC1 (stereo not shown) [Compound 106]	8%	16%
COc1cc(NCc2ccc(CNc3cc(OC)c(OC)c(OC)c3)cc2)cc(OC)c1OC [Compound 57]	12%	34%
COc1cc(NCc2ccc(OC/C=C(\C)CCCC(C)CCCC(C)CCCC(C)C)cc2)cc(OC)c1OC (stereo not shown) [Compound 48]	40%	90%
COc1cc(NCc2cccs2)cc(OC)c1OC [Compound 97]	24%	44%
COC(=O)c1ccc(CNc2cc(OC)c(OC)c(OC)c2)cc1 [Compound 60]	17%	46%
COc1cc(N(CC=C(C)C)CC=C(C)C)cc(OC)c1OC [Compound 117]	35%	63%
COc1cc(NCc2ccccn2)cc(OC)c1OC [Compound 98]	43%	79%
COc1cc(N(CC=C(C)CCCC(C)CCCC(C)CCCC(C)C)Cc2ccccc2)cc(OC)c1OC (stereo not shown) [Compound 9]	57%	78%
